ChEMBL document CHEMBL5365447, “Pronucleotides of 2',3'-Dideoxy-2',3'-Didehydrothymidine as Potent Anti-HIV Compounds” (J Med Chem, 2023)
Active and inactive are the calls of the source. The calls are words filed in the database; no cut-off is given here.

How the values were obtained:
[1] = target: DNA polymerase beta (Homo sapiens) (UniProt P06746); assay: Substrate activity at human DNA polymerase beta measured after 4 hrs by electrophoresis based primer extension assay
[2] = Selectivity index, ratio of CC50 for human CEM cells to EC50 for HIV-2 ROD infected in thymidine kinase-deficient human CEM cells; assay type: toxicity; details: read-out: Ratio CC50/EC50
[3] = Prodrug conversion in pH 7.3 phosphate buffer assessed as ((2S,5R)-5-(5-methyl-2,4-dioxo-3,4-dihydropyrimidin-1(2H)-yl)-2,5-dihydrofuran-2-yl)methyl tri-hydrogen diphosphate formation by measuring half life in presence of pig liver esterase by HPLC analysis; assay type: ADME
[4] = tested on: Human immunodeficiency virus 2; assay: Antiviral activity against HIV-2 ROD infected in thymidine kinase-deficient human CEM cells assessed as inhibition of virus-induced cytopathic effect incubated for 4 to 5 days by light microscopic analysis; assay type: functional, organism-based; details: Human immunodeficiency virus 2, ROD, CCRF-CEM
[5] = Chemical stability of the compound in phosphate buffer assessed as half life at pH 7.3 by HPLC analysis; assay type: physicochemical
[6] = target: T1, DNA polymerase alpha catalytic subunit (Homo sapiens) (UniProt P09884); assay: Substrate activity at human DNA polymerase alpha measured after 4 hrs by electrophoresis based primer extension assay
T1 sequence (whole entry): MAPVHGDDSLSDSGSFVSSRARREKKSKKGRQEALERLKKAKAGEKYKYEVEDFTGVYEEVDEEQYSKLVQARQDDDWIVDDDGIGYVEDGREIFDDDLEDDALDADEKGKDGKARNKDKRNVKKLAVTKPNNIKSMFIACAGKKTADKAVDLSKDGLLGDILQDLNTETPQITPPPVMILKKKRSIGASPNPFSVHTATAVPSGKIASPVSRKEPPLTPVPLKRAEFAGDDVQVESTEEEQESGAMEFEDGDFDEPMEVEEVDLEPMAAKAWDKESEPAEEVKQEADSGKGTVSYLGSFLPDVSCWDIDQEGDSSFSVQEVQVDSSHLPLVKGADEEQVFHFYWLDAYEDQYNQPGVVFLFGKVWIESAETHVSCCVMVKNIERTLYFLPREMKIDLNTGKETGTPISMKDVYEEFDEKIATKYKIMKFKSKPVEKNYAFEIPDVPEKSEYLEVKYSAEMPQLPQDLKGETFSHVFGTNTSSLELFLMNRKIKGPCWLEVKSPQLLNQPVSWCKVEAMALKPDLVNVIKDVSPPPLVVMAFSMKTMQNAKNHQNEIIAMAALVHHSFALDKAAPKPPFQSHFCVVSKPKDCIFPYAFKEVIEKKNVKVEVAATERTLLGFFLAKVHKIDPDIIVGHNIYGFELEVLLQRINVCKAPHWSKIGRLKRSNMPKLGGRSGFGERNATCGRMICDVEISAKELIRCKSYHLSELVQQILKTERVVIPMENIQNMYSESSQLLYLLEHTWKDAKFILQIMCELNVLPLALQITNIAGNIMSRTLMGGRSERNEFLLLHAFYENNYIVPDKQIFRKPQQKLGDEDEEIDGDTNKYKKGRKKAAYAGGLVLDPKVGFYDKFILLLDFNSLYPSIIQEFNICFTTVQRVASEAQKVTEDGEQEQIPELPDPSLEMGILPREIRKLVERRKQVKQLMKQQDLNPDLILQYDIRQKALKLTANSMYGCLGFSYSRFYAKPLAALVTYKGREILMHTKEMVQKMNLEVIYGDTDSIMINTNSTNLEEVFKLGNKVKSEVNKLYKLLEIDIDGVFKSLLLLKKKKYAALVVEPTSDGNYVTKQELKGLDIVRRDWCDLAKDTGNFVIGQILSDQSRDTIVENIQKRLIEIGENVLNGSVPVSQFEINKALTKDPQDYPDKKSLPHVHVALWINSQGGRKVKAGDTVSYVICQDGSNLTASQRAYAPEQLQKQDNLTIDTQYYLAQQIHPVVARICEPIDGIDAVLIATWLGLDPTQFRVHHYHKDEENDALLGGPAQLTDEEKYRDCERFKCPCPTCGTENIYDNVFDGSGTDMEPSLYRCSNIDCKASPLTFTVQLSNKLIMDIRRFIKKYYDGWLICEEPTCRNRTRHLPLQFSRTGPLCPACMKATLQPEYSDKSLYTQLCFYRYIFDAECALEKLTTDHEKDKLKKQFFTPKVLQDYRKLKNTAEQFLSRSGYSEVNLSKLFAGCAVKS

[7] = target: T2, DNA polymerase subunit gamma-1 (Homo sapiens) (UniProt P54098); assay: Substrate activity at human DNA polymerase gamma measured after 4 hrs by electrophoresis based primer extension assay
T2 sequence (whole entry): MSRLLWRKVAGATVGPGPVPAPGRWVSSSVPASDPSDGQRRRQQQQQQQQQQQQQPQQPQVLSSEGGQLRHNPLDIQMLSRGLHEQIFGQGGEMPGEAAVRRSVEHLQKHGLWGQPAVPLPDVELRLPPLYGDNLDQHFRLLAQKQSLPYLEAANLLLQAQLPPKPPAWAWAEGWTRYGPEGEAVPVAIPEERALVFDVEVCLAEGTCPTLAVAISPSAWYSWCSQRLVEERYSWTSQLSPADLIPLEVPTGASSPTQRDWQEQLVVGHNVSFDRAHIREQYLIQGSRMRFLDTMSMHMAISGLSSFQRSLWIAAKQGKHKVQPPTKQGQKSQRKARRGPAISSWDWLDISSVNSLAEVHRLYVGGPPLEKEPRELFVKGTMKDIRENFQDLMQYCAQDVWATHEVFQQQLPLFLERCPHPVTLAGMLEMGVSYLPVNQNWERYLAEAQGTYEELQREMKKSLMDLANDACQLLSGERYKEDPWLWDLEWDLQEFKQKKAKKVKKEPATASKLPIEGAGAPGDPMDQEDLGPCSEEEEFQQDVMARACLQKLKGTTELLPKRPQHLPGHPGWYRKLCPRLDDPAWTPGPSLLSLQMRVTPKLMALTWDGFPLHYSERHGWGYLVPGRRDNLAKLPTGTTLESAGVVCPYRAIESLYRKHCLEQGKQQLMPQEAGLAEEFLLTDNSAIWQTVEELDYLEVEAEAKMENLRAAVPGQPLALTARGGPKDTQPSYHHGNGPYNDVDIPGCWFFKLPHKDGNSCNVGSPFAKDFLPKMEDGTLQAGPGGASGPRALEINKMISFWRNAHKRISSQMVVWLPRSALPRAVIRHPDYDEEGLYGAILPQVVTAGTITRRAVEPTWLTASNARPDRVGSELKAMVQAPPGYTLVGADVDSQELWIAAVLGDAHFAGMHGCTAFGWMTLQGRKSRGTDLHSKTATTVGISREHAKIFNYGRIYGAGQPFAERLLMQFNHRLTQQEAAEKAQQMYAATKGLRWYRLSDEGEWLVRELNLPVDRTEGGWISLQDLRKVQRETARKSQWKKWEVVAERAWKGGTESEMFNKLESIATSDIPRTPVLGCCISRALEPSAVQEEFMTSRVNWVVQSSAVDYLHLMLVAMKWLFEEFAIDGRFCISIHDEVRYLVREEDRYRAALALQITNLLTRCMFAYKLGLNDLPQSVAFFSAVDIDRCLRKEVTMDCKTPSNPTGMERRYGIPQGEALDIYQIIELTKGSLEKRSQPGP

[8] = tested on: Human immunodeficiency virus 2; assay: Potency index, ratio of 3'-deoxy-2',3'-dehydrothymidine EC50 to compound EC50 for antiviral activity against HIV-2 ROD infected in wild-type human CEM/0 cells; assay type: functional
[9] = tested on: Human immunodeficiency virus 2; assay: Antiviral activity against HIV-2 ROD infected in wild-type human CEM/0 cells assessed as inhibition of virus-induced cytopathic effect incubated for 4 to 5 days by light microscopic analysis; assay type: functional, organism-based; details: Human immunodeficiency virus 2, ROD, CCRF-CEM
[10] = Retention time of the compound by HPLC analysis; assay type: physicochemical
[11] = tested on: Human immunodeficiency virus 2; assay: Potency index, ratio of 3'-deoxy-2',3'-dehydrothymidine EC50 to compound EC50 for antiviral activity against HIV-2 ROD infected in thymidine kinase-deficient human CEM[…] cells; assay type: functional
[12] = tested on: Human immunodeficiency virus 1; assay: Antiviral activity against HIV-1 HE infected in wild-type human CEM/0 cells assessed as inhibition of virus-induced cytopathic effect incubated for 4 to 5 days by light microscopic analysis; assay type: functional, organism-based; details: Human immunodeficiency virus 1, HE, CCRF-CEM
[13] = tested on: Human immunodeficiency virus 1; assay: Potency index, ratio of 3'-deoxy-2',3'-dehydrothymidine EC50 to compound EC50 for antiviral activity against HIV-1 HE infected in wild-type human CEM/0 cells; assay type: functional
[14] = Prodrug conversion in human CEM/0 cell extract assessed as metabolite formation by measuring half life by HPLC analysis; assay type: ADME; details: ccrf-cem
[15] = Cytotoxicity against human CEM cells assessed as reduction in cell viability incubated for 4 to 5 days by light microscopic analysis; assay type: toxicity, cell-based; details: CEM cells (CCRF-CEM), time 4-5 day
[16] = Prodrug conversion in pH 7.3 phosphate buffer assessed as metabolite formation by measuring half life in presence of pig liver esterase by HPLC analysis; assay type: ADME; details: isolated protein
[17] = Chemical stability of the compound in phosphate buffer saline assessed as half life at pH 7.3 by HPLC analysis; assay type: physicochemical; details: phosphate buffered saline

SMILES	Activity [1]	selectivity ratio [2]	Drug metabolism [3]	EC50 [4] [µM]	half-life [5] [h]	Activity [6]	Activity [7]	Ratio EC50 [8]	EC50 [9] [µM]	Retention_time [10] [min]	Ratio EC50 [11]	EC50 [12] [µM]	Ratio EC50 [13]	Drug metabolism [14]	CC50 [15] [µM]	t1/2 [16] [h]	half-life [17] [days]	t1/2 [14] [h]	Drug metabolism [16]
CCCCCCCCCCCCCCCCCCP(=O)(OCC(CC)CCCC)OP(=O)(O)OP(=O)(O)OC[C@@H]1C=C[C@H](n2cc(C)c(=O)[nH]c2=O)O1.N.N (stereo partly drawn)	inactive	175	Metabolite_Notdetected	0.24	> 1000	inactive	inactive	4	0.14	17.1	10000	0.09	4	Metabolite_Notdetected	42	–	–	–	–
CCCCCCCCCCCCOP(=O)(OCc1ccc(OC(=O)CCCC)cc1)OP(=O)(O)OC[C@@H]1C=C[C@H](n2cc(C)c(=O)[nH]c2=O)O1.N (stereo partly drawn)	–	> 72	–	1.39	–	–	–	–	0.36	16.6	–	0.39	–	–	> 100	< 0.01	11.9	1.1	–
CCCCCCCCCCCCP(=O)(OCc1ccc(OC(=O)CCCC)cc1)OP(=O)(O)OC[C@@H]1C=C[C@H](n2cc(C)c(=O)[nH]c2=O)O1.N (stereo partly drawn)	–	88	–	0.76	–	–	–	–	0.42	16.3	–	0.56	–	Metabolite_Notdetected	66.7	–	29.2	–	Metabolite_Notdetected
CCCCCCCCCCCCCCCCCCOP(=O)(OCc1ccc(OC(=O)CCCC)cc1)OP(=O)(O)OC[C@@H]1C=C[C@H](n2cc(C)c(=O)[nH]c2=O)O1.N (stereo partly drawn)	–	3170	–	0.016	–	–	–	–	0.036	20.3	–	0.059	–	–	50.6	0.18	16.9	> 7	–
CCCCCCCCCCCC(=O)Oc1ccc(COP(=O)(OCCCC)OP(=O)(O)OC[C@@H]2C=C[C@H](n3cc(C)c(=O)[nH]c3=O)O2)cc1.N (stereo partly drawn)	–	111	–	0.75	–	–	–	–	0.053	16.6	–	0.23	–	Metabolite_Notdetected	83.1	–	11.6	–	Metabolite_Notdetected
CCCCCCCCCCCCOP(=O)(OCc1ccc(OC(=O)CCCCCCCCCCC)cc1)OP(=O)(O)OC[C@@H]1C=C[C@H](n2cc(C)c(=O)[nH]c2=O)O1.N (stereo partly drawn)	–	1010	–	0.048	–	–	–	–	0.12	20.9	–	0.12	–	–	48.4	0.67	15.5	4.5	–
CCCCCCCCCCCCP(=O)(OCc1ccc(OC(=O)CCCCCCCCCCC)cc1)OP(=O)(O)OC[C@@H]1C=C[C@H](n2cc(C)c(=O)[nH]c2=O)O1.N (stereo partly drawn)	–	4110	–	0.01	–	–	–	–	0.06	20.6	–	0.13	–	–	41.1	0.27	> 83.3	3	–
CCCCOP(=O)(OCc1ccc(OC(=O)CCCC)cc1)OP(=O)(O)OC[C@@H]1C=C[C@H](n2cc(C)c(=O)[nH]c2=O)O1.N (stereo partly drawn)	–	> 5	–	19.2	–	–	–	–	0.17	12.5	–	0.44	–	–	> 100	< 0.01	5.46	0.36	–
